{"source": "patent US20090270453A1", "about": "“ANTI-MANIC EFFECTIVE DOSES OF SERTINDOLE” (priority 2007, published 2009)", "key": {"[1]": {"system": "AMPH+CDP induced locomotor activity", "settings": "rats; Lamberty, et al. 2001; cited from earlier work"}, "[2]": {"system": "sensitized response to an acute AMPH challenge", "settings": "mice; Husum 2005, poster no. 32.06; cited from earlier work"}, "[3]": {"system": "AMPH+CDP induced locomotor activity", "experiment": "Sensitized AMPH+CDP response model (induced locomotor hyperactivity)", "format": "in vivo, Male Wistar rats", "settings": "for effect on AMPH+CDP induced locomotor activity (hyperactivity): rats, s.c. pre-treatment, about 120 min test-period", "protocol": "(§1) Subjects: Male Wistar rats weighing about 150-200 g were housed 2-4 rats per cage in makrolon cages (about 20×about 35 cm) equipped with sawdust and with one plastic house for enrichment. The animals were kept at room temperature (about 20° C.±2) in about 12-hour light/dark cycle (lights on at about 06:00) with free access to food and tap water. The rats were allowed to acclimatize to the animal facility premises for about 5-9 days prior to the initiation of experiments. The animals were taken to the experimental room on the day before the experiment and weighed.\nDrugs: All drugs are listed as mg free base/kg with the exception of lithium (mEq/kg). Drug solutions were titrated into a pH range of about 4.5-7.0 for subcutaneous (s.c.) administration. To induce hyperactivity, amphetamine sulphate (about 0.9 mg/kg in about 0.9% NaCl, about 1 ml/kg) followed by CDP (7-Chloro-2-(methylmino)-5-phenyl-3h-1,4-benzodiazepine-4-oxide, about 8.9 mg/kg in about 10% hydroxypropyl-beta-cyclodextrin) was administrated about 35 minutes before the test. A parallel set of control animal received two vehicle injections. Lithium chloride (about 0.2-0.9 mEq/kg) was dissolved in distilled water isosmotically supplemented with NaCl, and administrated about 210 minutes before testing. Lamotrigine (6-(2,3-Dichloro-phenyl)-[1,2,4]-triazine-3,5-diamine, about 2.5-80 mg/kg) was dissolved in about 10% hydroxypropyl-beta-cyclodextrin and administrated about 30 minutes before the test.\n(§2) Test procedure: For the assessment of locomotor activity, makrolon cages (about 20×about 35 cm) with a thin layer of standard bedding material were placed in a U-frame equipped longitudinally with 4 infrared light sources and photocells placed about 4 cm above the bottom of the cage. All experiments were conducted under normal light conditions. The animals were placed individually in test boxes and the assessment of locomotor activity was immediately begun. During the test session, locomotor activity was recorded as crossings of infrared light beams and total locomotor activity was the accumulated number of crossings over the approximately 120-min period. The recording of a motility count required the crossing of two adjacent light beams, thus avoiding counts induced by stationary movements of the rat.\nData Analysis: The average total basal locomotor activity of the control groups in the different experiments varied between 322-516 light beam crossings (see Table 1). Due to this variation, the results in each experiment were normalized to percentage activity relative to the average total locomotor activity of control group that was set as 100%. Statistical analysis of differences in total locomotor activity (normalized data) among the various treatment groups was carried out using a two-way ANOVA with factors treatment (AMPH+CDP vs. vehicle) and drug (drug vs. vehicle). In case of a significant interaction, a post hoc Student-Newman-Keuls Method was used for multiple comparisons. A probability level of 0.05 was considered significant.\nCrossings of light-beams as a measure of locomotor activity over about a 120 min test-period is shown as percentage of the control group-level that is set to 100%. The bars show the mean±SEM for each group and the dots show the activity of individual rats (n=10-12). Administration of amphetamine (about 0.9 mg/kg, s.c.) and chlordiazepoxide (about 8.9 mg/kg, s.c.) produced a significant increase in locomotor activity (***p<0.001 vs. control group (O) in all experiments)."}, "[4]": {"system": "α1-adrenergic receptors", "settings": "Sanchez et al. 1991; Arnt and Skarsfeldt 1998; cited from earlier work"}, "[5]": {"system": "baseline locomotor activity of control rats", "experiment": "Baseline locomotor activity of control rats in locomotor box", "format": "in vivo, Male Wistar rats", "settings": "for Average Crossings in % (SEM): % of control group set to 100%; for effect on baseline (basal) locomotor activity: locomotor box about 2 hours, administered doses", "protocol": "as §1, §2\nStatistical analysis of differences in total locomotor activity (normalized data) among the various treatment groups was carried out using a two-way ANOVA with factors treatment (AMPH+CDP vs. vehicle) and drug (drug vs. vehicle). In case of a significant interaction, a post hoc Student-Newman-Keuls Method was used for multiple comparisons. A probability level of 0.05 was considered significant."}, "[6]": {"system": "schizophrenic patients", "settings": "human clinical studies; Daniel D, et al. 1995; cited from earlier work"}, "[7]": {"system": "serotonin 5-HT2", "settings": "Sanchez et al. 1991; Arnt and Skarsfeldt 1998; cited from earlier work"}, "[8]": {"molecular_target": "dopamine D2 (Homo sapiens, UniProt P14416)", "sequence (P14416 whole entry)": "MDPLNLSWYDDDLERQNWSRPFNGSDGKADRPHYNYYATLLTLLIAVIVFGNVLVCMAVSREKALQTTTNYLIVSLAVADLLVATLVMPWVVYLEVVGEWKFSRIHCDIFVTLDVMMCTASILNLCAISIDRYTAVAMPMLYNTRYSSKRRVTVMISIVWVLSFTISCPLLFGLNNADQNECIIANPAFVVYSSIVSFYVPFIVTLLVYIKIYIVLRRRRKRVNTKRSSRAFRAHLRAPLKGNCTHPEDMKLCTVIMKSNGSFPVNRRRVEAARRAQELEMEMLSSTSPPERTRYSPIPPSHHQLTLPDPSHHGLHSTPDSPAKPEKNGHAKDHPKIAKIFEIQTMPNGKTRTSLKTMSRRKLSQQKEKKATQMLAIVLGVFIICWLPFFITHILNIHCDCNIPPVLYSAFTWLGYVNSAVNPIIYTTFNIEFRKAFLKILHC", "settings": "Sanchez et al. 1991; Arnt and Skarsfeldt 1998; cited from earlier work"}, "[9]": {"system": "sensitized response to an acute AMPH challenge", "experiment": "Sensitized AMPH response model (induced hyperactivity)", "format": "in vivo, Male Crl:NMRI mice", "settings": "for effect on AMPH induced hyperactivity in sensitized mice: s.c. pre-treatment, about 30 min recording", "protocol": "(§3) Subjects: Male Crl:NMRI mice (about 20 g) were at the animal facility about 5 days prior to the start of the experiment and were housed in climate-controlled animal facilities under normal light-dark cycle (lights on about 06:00 to about 18:00). The mice were kept 6 per cage and allowed enrichment (two plastic houses+nesting material).\n(§4) Drugs: All compounds were administered subcutaneously and are listed as free base doses. The mice were pre-treated with either d-amphetamine (about 1.8 mg/kg) or vehicle (about 0.9% NaCl, about 10 ml/kg) once daily for five consecutive days.\nTest procedure: About 17-19 days after the pre-treatment, the animals were treated with test substance or vehicle and individually placed to habituate for about 30 min in motility boxes (about 20×about 32 cm) equipped with about 5×about 8 light sources and infrared cells spaced by about 4 cm. The light beams crossed the cage 1.8 cm above the bottom of the cage. Recording of a motility count requires interruption of adjacent light beams, thus avoiding counts induced by stationary movements of the mice. After habituation, an acute dose of d-amphetamine (about 0.95 mg/kg) or vehicle was administered and data acquisition was begun and lasted for about 30 min.\n(§5) Data Analysis: Data were averaged within the groups (n=12) and are presented as mean±SD. The acute effect of test substance against the sensitized response to amphetamine was statistically evaluated by one-way ANOVA of variance: Dunn's method was applied for post hoc testing against the sensitized group receiving (NaCl, about 1 ml/kg) followed by CDP (about 8.9 mg/kg in 10% hydroxypropyl-beta-cyclodextrin) was administrated about 35 minutes before the test. A parallel set of control animal received two vehicle injections."}, "[10]": {"system": "saline activity", "experiment": "Activity of saline (non-AMPH) mice in the sensitized AMPH response model", "format": "in vivo, Male Crl:NMRI mice", "settings": "sertindole about 0.63 mg/kg", "protocol": "as §3, §4\nTest procedure: About 17-19 days after the pre-treatment, the animals were treated with test substance or vehicle and individually placed to habituate for about 30 min in motility boxes (about 20×about 32 cm) equipped with about 5×about 8 light sources and infrared cells spaced by about 4 cm. The light beams crossed the cage 1.8 cm above the bottom of the cage. […]\nas §5, with “A parallel set of control animal received two vehicle injections.” left out"}}, "note": "Entries after “also recorded” stand apart in the source; their conditions may differ."}
{"smiles": "CCCC(CCC)C(=O)O", "note": "[valproate]", "values": [{"measurement": "effectiveness in the AMPH+CDP induced hyperactivity model", "setting": "[1]", "result": "effective"}, {"measurement": "effect on the sensitized response to an acute AMPH challenge", "setting": "[2]", "result": "dose-dependently abolish; also recorded: reversed the effect of acute AMPH administration"}]}
{"smiles": "O=C1NCCN1CCN1CCC(c2cn(-c3ccc(F)cc3)c3ccc(Cl)cc23)CC1", "note": "[sertindole]", "values": [{"measurement": "effect on AMPH+CDP induced locomotor activity (hyperactivity)", "setting": "[3]", "result": "reduced the induced locomotor activity; also recorded: significantly decreased; also recorded: active"}, {"measurement": "significance of reduction of AMPH+CDP induced locomotor activity", "setting": "[3]; sertindole about 0.16 mg/kg, about 120 min s.c. pre-treatment", "result": "significant"}, {"measurement": "significance of reduction of AMPH+CDP induced locomotor activity", "setting": "[3]; sertindole about 1.25 mg/kg, about 120 min s.c. pre-treatment", "result": "significant"}, {"measurement": "affinity for α1-adrenergic receptors", "setting": "[4]", "result": "high affinity"}, {"measurement": "Average Crossings in % (SEM)", "setting": "[5]; 0.02 mg/kg", "result": 116.7, "unit": "%"}, {"measurement": "Average Crossings in % (SEM)", "setting": "[5]; 0.16 mg/kg", "result": 119.9, "unit": "%"}, {"measurement": "Average Crossings in % (SEM)", "setting": "[5]; 1.25 mg/kg", "result": 132.4, "unit": "%"}, {"measurement": "effect on baseline (basal) locomotor activity", "setting": "[5]", "result": "no significant effect"}, {"measurement": "doses effective to treat schizophrenic patients", "setting": "[6]", "result": "12 to 24", "unit": "mg/day"}, {"measurement": "affinity for serotonin 5-HT2", "setting": "[7]", "result": "high affinity"}, {"measurement": "affinity for dopamine D2", "setting": "[8]", "result": "high affinity"}, {"measurement": "effect on AMPH induced hyperactivity in sensitized mice", "setting": "[9]", "result": "reversed the induced hyperactivity; also recorded: significantly decreased; also recorded: active"}, {"measurement": "effect on induced hyperactivity", "setting": "[9]; sertindole 0.16 mg/kg", "result": "significantly reversed the induced hyperactivity"}, {"measurement": "effect on saline activity", "setting": "[10]", "result": "significantly decreased the saline activity"}]}
{"smiles": "O=C(CCCN1CCC(O)(c2ccc(Cl)cc2)CC1)c1ccc(F)cc1", "note": "[haloperidol]", "values": [{"measurement": "effect on the sensitized response to an acute AMPH challenge", "setting": "[2]", "result": "reversed the effect of acute AMPH administration"}]}
{"smiles": "NC(=O)N1c2ccccc2C=Cc2ccccc21", "note": "[carbamazepine]", "values": [{"measurement": "effectiveness in the AMPH+CDP induced hyperactivity model", "setting": "[1]", "result": "effective"}, {"measurement": "effect on the sensitized response to an acute AMPH challenge", "setting": "[2]", "result": "dose-dependently abolish; also recorded: reversed the effect of acute AMPH administration"}]}
{"smiles": "Nc1nnc(-c2cccc(Cl)c2Cl)c(N)n1", "note": "[lamotrigine, 6-(2,3-Dichloro-phenyl)-[1,2,4]-triazine-3,5-diamine]", "values": [{"measurement": "significance of reduction of AMPH+CDP induced locomotor activity", "setting": "[3]; lamotrigine about 20 mg/kg, about 30 min s.c. pre-treatment", "result": "significant"}, {"measurement": "significance of reduction of AMPH+CDP induced locomotor activity", "setting": "[3]; lamotrigine about 20 mg/kg, about 30 min s.c. pre-treatment, listed as Lamotrigine", "result": "significantly counteracted"}, {"measurement": "significance of reduction of AMPH+CDP induced locomotor activity", "setting": "[3]; lamotrigine about 40 mg/kg, about 30 min s.c. pre-treatment", "result": "significant"}, {"measurement": "significance of reduction of AMPH+CDP induced locomotor activity", "setting": "[3]; lamotrigine about 40 mg/kg, about 30 min s.c. pre-treatment, listed as Lamotrigine", "result": "significantly counteracted"}, {"measurement": "significance of reduction of AMPH+CDP induced locomotor activity", "setting": "[3]; lamotrigine about 80 mg/kg, about 30 min s.c. pre-treatment", "result": "significant"}, {"measurement": "significance of reduction of AMPH+CDP induced locomotor activity", "setting": "[3]; lamotrigine about 80 mg/kg, about 30 min s.c. pre-treatment, listed as Lamotrigine", "result": "significantly counteracted"}, {"measurement": "effect on AMPH+CDP induced locomotor activity (hyperactivity)", "setting": "[3]", "result": "significantly reduced; also recorded: reduced the induced locomotor activity"}, {"measurement": "effect on AMPH+CDP induced locomotor activity (hyperactivity)", "setting": "[3]; listed as Lamotrigine", "result": "significantly and dose-dependently decreased"}, {"measurement": "effect on the sensitized response to an acute AMPH challenge", "setting": "[2]", "result": "dose-dependently abolish; also recorded: reversed the effect of acute AMPH administration"}, {"measurement": "Average Crossings in % (SEM)", "setting": "[5]; 2.5 mg/kg", "result": 114.5, "unit": "%"}, {"measurement": "Average Crossings in % (SEM)", "setting": "[5]; 10 mg/kg", "result": 107.9, "unit": "%"}, {"measurement": "Average Crossings in % (SEM)", "setting": "[5]; 20 mg/kg", "result": 97.2, "unit": "%"}, {"measurement": "Average Crossings in % (SEM)", "setting": "[5]; 40 mg/kg", "result": 82.0, "unit": "%"}, {"measurement": "Average Crossings in % (SEM)", "setting": "[5]; 80 mg/kg", "result": 83.0, "unit": "%"}, {"measurement": "effect on baseline (basal) locomotor activity", "setting": "[5]", "result": "not reduced; also recorded: no significant effect"}]}
{"smiles": "CN(C)CCCC1(c2ccc(F)cc2)OCc2cc(C#N)ccc21", "note": "(centres unmarked) [citalopram]", "values": [{"measurement": "Average Crossings in % (SEM)", "setting": "[5]; 0.8 mg/kg", "result": 71.0, "unit": "%"}, {"measurement": "effect on baseline (basal) locomotor activity", "setting": "[5]", "result": "no significant effect"}, {"measurement": "effect on AMPH induced hyperactivity in sensitized mice", "setting": "[9]", "result": "no effect"}, {"measurement": "effect on AMPH induced hyperactivity in sensitized mice", "setting": "[9]; listed as Citalopram", "result": "inactive"}]}
